The source of these data is patent publication US8163793B2, “Proline derivatives” (Hoffman-La Roche Inc., priority 2009, dated 2012).

What is called IC50 is the concentration needed to halve the response being measured.

The target of one assay is Cat L (UniProt P07711). The assay is described as follows: Cathepsin enzyme inhibition assay (fluorogenic peptide substrate Z-Val-Val-Arg-AMC), Cathepsin L. The class given is biochemical, human and mouse. Conditions: enzyme 1 nM, substrate 20 μM, pH 6.5; read-out: CatL IC50. An outline of the steps: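 Cathepsin L at 1 nM was mixed with compound, then started with 20 μM Z-Val-Val-Arg-AMC in pH 6.5 potassium phosphate with EDTA, Triton X-100 and 5 mM DTT. AMC fluorescence (ex 360/em 465 nm) was followed over 20 min. IC50 is given in μM.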

The target in another assay is Cathepsin S (UniProt P25774). The assay is described as follows: Cathepsin enzyme inhibition assay (fluorogenic peptide substrate Z-Val-Val-Arg-AMC), Cathepsin S. Conditions: enzyme 1 nM, substrate 20 μM, pH 6.5; read-out: CatS IC50. The class given is biochemical, human and mouse. An outline of the steps:
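Human or mouse cathepsin S (1 nM) was run in 100 mM potassium phosphate pH 6.5 with 5 mM EDTA, 0.001% Triton X-100 and 5 mM DTT. The rise in AMC fluorescence from cleavage was measured, and IC50 values were calculated by standard methods and expressed in μM.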

Regarding `N#CC1(NC(=O)[C@@H]2C[C@@H](S(=O)(=O)c3ccc(-n4cnc5cnccc54)cc3Cl)CN2C(=O)C2(c3ccc(Cl)cc3)CC2)CC1` [Example 349, (2S,4R)-4-(2-Chloro-4-imidazo[4,5-c]pyridin-1-yl-benzenesulfonyl)-1-[1-(4-chloro-phenyl)-cyclopropanecarbonyl]-pyrrolidine-2-carboxylic acid (1-cyano-cyclopropyl)-amide], the results for the IC50 on Cat L and at Cathepsin S were 0.22 µM and 0.03 nM, respectively.

Regarding `Cc1cc(N2C[C@H](S(=O)(=O)c3ccccc3C(F)(F)F)C[C@H]2C(=O)NC2(C#N)CC2)n(-c2ccnc(Cl)c2)n1` [Example 193, (2S,4R)-1-[2-(2-Chloro-pyridin-4-yl)-5-methyl-2H-pyrazol-3-yl]-4-(2-trifluoromethyl-benzenesulfonyl)-pyrrolidine-2-carboxylic acid (1-cyano-cyclopropyl)-amide], the IC50 was 28.5 µM on Cat L and 0.2 nM at Cathepsin S.

On to `N#CCNC(=O)[C@@H]1C[C@@H](S(=O)(=O)c2ccccc2C(F)(F)F)CN1C(=O)c1ccncc1` [Example 69, (2S,4R)-1-(Pyridine-4-carbonyl)-4-(2-trifluoromethyl-benzenesulfonyl)-pyrrolidine-2-carboxylic acid cyanomethyl-amide], for which the values for the IC50 at Cat L and on Cathepsin S were at least 25 µM and 0.4 nM, respectively.

For `CC(C(=O)N1C[C@H](S(=O)(=O)c2ccccc2Cl)C[C@H]1C(=O)NC1(C#N)CC1)c1ccc(Cl)cc1` (stereo partly drawn) [Example 430, (2S,4R)-1-(2-(4-chlorophenyl)propanoyl)-4-(2-chlorophenylsulfonyl)-N-(1-cyanocyclopropyl)pyrrolidine-2-carboxamide], the values for the IC50 on Cat L and on Cathepsin S were 2.59 µM and 0.82 nM, respectively.

For the compound `N#CC1(NC(=O)[C@@H]2C[C@@H](S(=O)(=O)c3ccccc3Cl)CN2C(=O)C(F)(F)F)CC1` [Example 80, (2S,4R)-4-(2-Chloro-benzenesulfonyl)-1-(2,2,2-trifluoro-acetyl)-pyrrolidine-2-carboxylic acid (1-cyano-cyclopropyl)-amide], the IC50 on Cat L stood at 9.77 µM; at Cathepsin S, 0.8 nM.

Turning to `Cc1cc(N2C[C@H](S(=O)(=O)c3ccccc3C(F)(F)F)C[C@H]2C(=O)NC2(C#N)CC2)n(C(C)(C)C)n1` [Example 339, (2S,4R)-1-(2-tert-Butyl-5-methyl-2H-pyrazol-3-yl)-4-(2-trifluoromethyl-benzenesulfonyl)-pyrrolidine-2-carboxylic acid (1-cyano-cyclopropyl)-amide], the concentration for half-maximal inhibition (IC50) on Cat L was at least 25 µM; on Cathepsin S, 62.5 nM.

As for `N#CC1(NC(=O)[C@@H]2C[C@@H](S(=O)(=O)c3ccccc3Cl)CN2C(=O)[C@H](O)c2ccc(Cl)cc2)CC1` [Example 411, (2S,4R)-4-(2-Chloro-benzenesulfonyl)-1-[(R)-2-(4-chloro-phenyl)-2-hydroxy-acetyl]-pyrrolidine-2-carboxylic acid (1-cyano-cyclopropyl)-amide], the IC50 was found to be 0.55 µM at Cat L and 0.525 nM on Cathepsin S.

Turning to `N#CC1(NC(=O)[C@@H]2C[C@@H](S(=O)(=O)c3ccc(OCC(F)(F)F)cc3Cl)CN2C(=O)C(F)(F)c2ccccc2)CC1` [Example 251, (2S,4R)-4-[2-Chloro-4-(2,2,2-trifluoro-ethoxy)-benzenesulfonyl]-1-(2,2-difluoro-2-phenyl-acetyl)-pyrrolidine-2-carboxylic acid (1-cyano-cyclopropyl)-amide], the IC50 is 1.25 µM on Cat L and 0.29 nM at Cathepsin S.

As to `N#CCNC(=O)[C@@H]1C[C@@H](S(=O)(=O)c2ccccc2C(F)(F)F)CN1C(=O)c1ccc(F)cc1` [Example 65, (2S,4R)-1-(4-Fluoro-benzoyl)-4-(2-trifluoromethyl-benzenesulfonyl)-pyrrolidine-2-carboxylic acid cyanomethyl-amide], the IC50 was at least 25 µM on Cat L and 0.6 nM on Cathepsin S.

For the compound `N#CCNC(=O)[C@@H]1C[C@@H](S(=O)(=O)c2ccccc2C(F)(F)F)CN1C(=O)C1CCCCC1` [Example 67, (2S,4R)-1-Cyclohexanecarbonyl-4-(2-trifluoromethyl-benzenesulfonyl)-pyrrolidine-2-carboxylic acid cyanomethyl-amide], the figures for the IC50 at Cat L and on Cathepsin S were at least 25 µM and 0.2 nM, respectively.

On to `CC(C)C(=O)N1C[C@H](S(=O)(=O)c2ccc(Cl)cc2Cl)C[C@H]1C(=O)NC1(C#N)CC1` [Example 226, (2S,4R)-4-(2,4-Dichloro-benzenesulfonyl)-1-isobutyryl-pyrrolidine-2-carboxylic acid (1-cyano-cyclopropyl)-amide], for which the IC50 is 13.5 µM at Cat L and 0.6 nM on Cathepsin S.

In the case of `CC(C)C[C@]1(C(=O)NC2(C#N)CC2)C[C@H](S(C)(=O)=O)[C@@H](c2ccc(F)cc2)N1` [Example 123, (2R,4S,5R)-5-(4-Fluoro-phenyl)-2-isobutyl-4-methanesulfonyl-pyrrolidine-2-carboxylic acid (1-cyano-cyclopropyl)-amide], the figures for the IC50 on Cat L and on Cathepsin S were at least 25 µM and 2610 nM, respectively.

With `N#CC1(NC(=O)[C@@H]2C[C@@H](S(=O)(=O)c3ccc(OC4COC4)cc3Cl)CN2)CC1` [Example 181, (2S,4R)-4-[2-Chloro-4-(oxetan-3-yloxy)-benzenesulfonyl]-pyrrolidine-2-carboxylic acid (1-cyano-cyclopropyl)-amide], the figures for the IC50 at Cat L and on Cathepsin S were 16.5 µM and 3.7 nM, respectively.

For the compound `Cc1cc(N2C[C@H](S(=O)(=O)c3ccccc3C(F)(F)F)C[C@H]2C(=O)NC2(C#N)CC2)n(CC(F)(F)F)n1` [Example 269, (2S,4R)-1-[5-Methyl-2-(2,2,2-trifluoro-ethyl)-2H-pyrazol-3-yl]-4-(2-trifluoromethyl-benzenesulfonyl)-pyrrolidine-2-carboxylic acid (1-cyano-cyclopropyl)-amide], the IC50 came out at 75.1 µM at Cat L and 1.6 nM on Cathepsin S.

Consider `N#CC1(NC(=O)[C@@H]2C[C@@H](S(=O)(=O)c3ccccc3C(F)(F)F)CN2CC(F)(F)C(F)(F)F)CC1` [Example 109, (2S,4R)-1-(2,2,3,3,3-Pentafluoro-propyl)-4-(2-trifluoromethyl-benzenesulfonyl)-pyrrolidine-2-carboxylic acid (1-cyano-cyclopropyl)-amide], for which the IC50 on Cat L is at least 25 µM; at Cathepsin S it was 12.7 nM.

Consider `N#CC1(NC(=O)[C@@H]2C[C@@H](S(=O)(=O)c3ccccc3Cl)CN2C(=O)c2n[nH]c3cc(Cl)ccc23)CC1` [Example 410, (2S,4R)-4-(2-Chloro-benzenesulfonyl)-1-(6-chloro-1H-indazole-3-carbonyl)-pyrrolidine-2-carboxylic acid (1-cyano-cyclopropyl)-amide], for which the IC50 at Cat L was found to be 29.7 µM; at Cathepsin S, 4.8 nM.

In the case of `CS(=O)(=O)[C@@H]1C[C@@H](C(=O)NC2(C#N)CC2)N(C(=O)C2(c3ccc(Cl)cc3)CC2)C1` [Example 409, (2S,4R)-1-[1-(4-Chloro-phenyl)-cyclopropanecarbonyl]-4-methanesulfonyl-pyrrolidine-2-carboxylic acid (1-cyano-cyclopropyl)-amide], the figures for the IC50 on Cat L and at Cathepsin S were at least 25 µM and 2530 nM, respectively.

In the case of `CC(C)(C)OC(=O)N1C[C@H](S(=O)(=O)c2cccc(Cl)c2Cl)C[C@H]1C(=O)NC1(C#N)CC1` [Example 41, (2S,4R)-2-(1-Cyano-cyclopropylcarbamoyl)-4-(2,3-dichloro-benzenesulfonyl)-pyrrolidine-1-carboxylic acid tert-butyl ester], the IC50 at Cat L was at least 25 µM; at Cathepsin S it was 31.2 nM.

`Cn1nc(C(C)(C)C)cc1C(=O)N1C[C@H](S(=O)(=O)c2ccc(OCC(F)(F)F)cc2Cl)C[C@H]1C(=O)NC1(C#N)CC1` [Example 386, (2S,4R)-1-(5-tert-Butyl-2-methyl-2H-pyrazole-3-carbonyl)-4-[2-chloro-4-(2,2,2-trifluoro-ethoxy)-benzenesulfonyl]-pyrrolidine-2-carboxylic acid (1-cyano-cyclopropyl)-amide]: the results for the IC50 on Cat L and on Cathepsin S were 4.03 µM and 1.75 nM, respectively.

With `N#CC1(NC(=O)[C@@H]2C[C@@H](S(=O)(=O)c3ccc(OCC(F)(F)F)cc3Cl)CN2C(=O)C[C@H]2CC[C@H](N)CC2)CC1` [Example 265, (2S,4R)-1-[2-(4-Amino-cyclohexyl)-acetyl]-4-[2-chloro-4-(2,2,2-trifluoro-ethoxy)-benzenesulfonyl]-pyrrolidine-2-carboxylic acid (1-cyano-cyclopropyl)-amide], the IC50 at Cat L is 2.05 µM; at Cathepsin S, 1.35 nM.

Regarding `N#CC1(NC(=O)[C@@H]2C[C@@H](S(=O)(=O)c3ccc(OCC(F)(F)F)cc3Cl)CN2C(=O)C2(c3ccc(Cl)cc3)CCC2)CC1` [Example 278, (2S,4R)-1-[1-(4-Chloro-phenyl)-cyclobutanecarbonyl]-4-[2-chloro-4-(2,2,2-trifluoro-ethoxy)-benzenesulfonyl]-pyrrolidine-2-carboxylic acid (1-cyano-cyclopropyl)-amide], the IC50 was determined as 2.75 µM at Cat L and 0.003 nM at Cathepsin S.

In the case of `N#CC1(NC(=O)[C@@H]2C[C@@H](S(=O)(=O)c3ccccc3Cl)CN2C(=O)C2(c3ccc(F)cc3)CC2)CC1` [Example 425, (2S,4R)-4-(2-chlorophenylsulfonyl)-N-(1-cyanocyclopropyl)-1-(1-(4-fluorophenyl)-cyclopropanecarbonyl)pyrrolidine-2-carboxamide], the figures for the IC50 at Cat L and on Cathepsin S were 0.335 µM and 0.26 nM, respectively.

With `Cc1cc(N2C[C@H](S(=O)(=O)c3ccccc3Cl)C[C@H]2C(=O)NC2(C#N)CC2)n(C2CCS(=O)(=O)CC2)n1` [Example 479, (2S,4R)-4-[(2-Chlorophenyl)sulfonyl]-N-(1-cyanocyclopropyl)-1-[1-(1,1-dioxidotetrahydro-2H-thiopyran-4-yl)-3-methyl-1H-pyrazol-5-yl]-L-prolinamide], the IC50 on Cat L turned out to be 3.07 µM; on Cathepsin S, 3.24 nM.
